The experiment concerns BALL-1. Nature of the experiment: cytotoxicity against human BALL1 cells by MTT assay. In kind it is functional, cell-based. A general note: Tetrazolium dyes change colour on reduction, which living cells bring about.

Consider `CCCCCCCCCCCC(=O)[C@]12O[C@H]1C(C)(O)NC2=O` (some centres undefined), for which the concentration for half-maximal inhibition (IC50) (as a rule, the point on the concentration scale where inhibition reaches its midpoint) came to 1650 nM. To `CCN(CC)c1ccc2cc(NC(=O)OCCCCCCCCCCCC(=O)[C@]34O[C@H]3C(C)(O)NC4=O)c(=O)oc2c1` (some centres undefined) belongs 1560 nM. With `CC1(O)NC(=O)[C@@]2(C(=O)CCCCCCCCCCCNC(=O)CCCC[C@@H]3SC[C@@H]4NC(=O)N[C@@H]43)O[C@@H]12` (some centres undefined) the figure was 48300 nM; with `C\C=C(/C=C(C)/C=C/CC/C=C(\C)C(=O)[C@]12O[C@H]1C(C)(O)NC2=O)C(=O)OC` (some centres undefined) [EPOLACTAENE], 3820 nM.

(Values after ChEMBL document CHEMBL1157191, “Syntheses and applications of fluorescent and biotinylated epolactaene derivatives: Epolactaene and its derivative induce disulfide formation” (Bioorg Med Chem, 2008).)
